# Source: article PMC5193436 (PLoS ONE, 2016)
# Molecular target: T1, Enolase 1 (αEnolase) (Homo sapiens, UniProt P06733)
# T1 construct: gene ENO1; recombinant ENO1
# Assay: direct spectrophotometric PEP assay ([…] nm) with purified recombinant ENO1; NADH-coupled assay in lysates
# Type: biochemical
# T1 sequence (P06733 2-434): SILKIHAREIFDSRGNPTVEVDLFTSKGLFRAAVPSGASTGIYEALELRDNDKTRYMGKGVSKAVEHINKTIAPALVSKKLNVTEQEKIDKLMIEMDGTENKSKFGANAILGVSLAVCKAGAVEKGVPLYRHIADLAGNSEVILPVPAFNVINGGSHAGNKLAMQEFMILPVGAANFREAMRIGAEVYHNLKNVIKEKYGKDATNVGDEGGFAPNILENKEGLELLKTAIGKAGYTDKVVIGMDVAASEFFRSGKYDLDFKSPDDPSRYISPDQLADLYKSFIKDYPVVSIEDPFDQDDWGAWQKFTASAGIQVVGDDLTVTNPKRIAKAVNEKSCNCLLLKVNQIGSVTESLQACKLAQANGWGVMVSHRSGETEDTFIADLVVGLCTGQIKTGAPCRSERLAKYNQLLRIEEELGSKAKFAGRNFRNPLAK
smiles,measurement,value
"O=C1C(P(=O)(O)O)CC(O)N1O (stereo not shown) [SF2312, 3-dihydroxyphosphoryl-1,5-dihydroxy-2-pyrrolidone]",direct spectrophotometric PEP assay (240 nm) with purified recombinant ENO1; NAD,SF2312 (c) on Enolase activity in purified recombinant ENO1 and ENO2 was determined using the direct PEP-detection assay
